Article PMC5891061, “Electrophysiological mechanisms of vandetanib-induced cardiotoxicity: Comparison of action potentials in rabbit Purkinje fibers and pluripotent stem cell-derived cardiomyocytes” (PLoS ONE, 2018)

Legend:
KCNQ1/KCNE1 (IKs) = target: T1, KCNQ1/KCNE1 (IKs) (Homo sapiens, UniProt P51787); test: Whole-cell patch clamp, IKs in KCNQ1/KCNE1-cotransfected HEK293 cells; assay type: cell-based; settings: for IKs current: HEK293
T1 construct: expressed in transfected cells; host or cells: HEK293
Text: (§1) For various aspects of cardiac ion channel study, human embryonic kidney (HEK293; ATCC, Manassas, VA, USA) cells were transiently transfected using lipofectAmin2000 (Gibco BRL, New York, NY, USA) according to the manufacturer’s instructions. The hERG (human ether-ago-go-related gene corresponding to IKr), KCNQ1/KCNE1 (the gene corresponding to IKs), KCNJ2 (the gene corresponding to IK1) or SCN5A (the gene corresponding to INa) cDNA was co-transfected with green fluorescence protein, the surface marker protein, to allow assessment of the transfection efficiency. For the calcium current, enzymatically isolated single rat ventricular myocytes were used. Briefly, the hearts were rapidly excised from anaesthetized Sprague–Dawley rats (250–350 g) and perfused via the aorta on a Langendorff apparatus with an oxygenated normal Tyrode (NT) solution for 5 min. To clear the blood, then perfused with Ca^2+-free normal Tyrode solution for 3 min. Next, the heart was perfused with enzyme solution containing 0.6 mg/mL collagenase (Worthington Biomedical Corp., Lakewood, NJ, USA) for 30–40 min. Finally, this enzyme-containing solution was washed out for 5 min. with a high-K^+ and low-Cl^-) Kraft-Bruhe solution. Following the isolation procedure, the left ventricle was dissected out and agitated mechanically with a fire-polished Pasteur pipette in Kraft-Bruhe solution to obtain single myocytes. The isolated myocytes were stored at 4°C until use.
The external solution for recording the IhERG, IKs and INa channel currents was NT solution. The internal solution for IhERG contained the following (in mM): 130 KCl, 5 EGTA, 10 HEPES, 1 MgCl2, 5 Mg-ATP (pH 7.25 with KOH), and for IKs in the KCNQ1/KCNE1-cotransfected HEK293 cells, 150 KCl, 5 EGTA, 10 HEPES, 2 MgCl2, 1 CaCl2 and 5 Na2-ATP (pH adjusted 7.25 with KOH). […] The calcium current was measured in naïve rat ventricular myocytes, cells were superfused with an external solution that consisted of (in mM): 137 choline-Cl, 5 CsCl, 0.5 MgCl2, 2 4-AP, 10 HEPES, 10 glucose and 1.8 CaCl2 (pH 7.4 with NaOH), whereas the intracellular solution used to fill the pipette had the following ionic solution (in mM): 20 CsCl, 100 Cs-aspartate, 10 EGTA, 10 HEPES, 20 TEA-Cl, 5 Mg-ATP (pH 7.25 with KOH). […]
(§2) pCLAMP (Axon Instruments, Foster City, CA, USA), Origin 8 (OriginLab Corp, Northampton, MA, USA), and Excel (Microsoft, Redmond, WA, USA) were used for data acquisition and analysis. The concentration–response relationships for drug-induced blockage were calculated using SigmaPlot (Systat Software, San Jose, CA, USA). […] Statistical significance was determined using the Student’s t-test and one-way ANOVA with post hoc testing using Dunnett’s method; p < 0.05 was considered to indicate statistical significance. […]

[1] = target: Ca2+-specific inward current (ICa) (Rattus norvegicus, UniProt P22002); test: Whole-cell patch clamp, ICa in isolated rat ventricular myocytes; assay type: cell-based
Text: as §1, with “Next, the heart was perfused with enzyme solution containing 0.6 mg/mL collagenase (Worthington Biomedical Corp., Lakewood, NJ, USA) for 30–40 min. Finally, this enzyme-containing solution was washed out for 5 min. with a high-K^+ and low-Cl^-) Kraft-Bruhe solution. Following the isolation procedure, the left ventricle was dissected out and agitated mechanically with a fire-polished Pasteur pipette in Kraft-Bruhe solution to obtain single myocytes. The isolated myocytes were stored at 4°C until use.” left out
The external solution for recording the IhERG, IKs and INa channel currents was NT solution. […] The calcium current was measured in naïve rat ventricular myocytes, cells were superfused with an external solution that consisted of (in mM): 137 choline-Cl, 5 CsCl, 0.5 MgCl2, 2 4-AP, 10 HEPES, 10 glucose and 1.8 CaCl2 (pH 7.4 with NaOH), whereas the intracellular solution used to fill the pipette had the following ionic solution (in mM): 20 CsCl, 100 Cs-aspartate, 10 EGTA, 10 HEPES, 20 TEA-Cl, 5 Mg-ATP (pH 7.25 with KOH). […]
as §2

IhERG in hiPSC-CMs = target: T2, IhERG in hiPSC-CMs (Homo sapiens, UniProt Q12809); test: IhERG current in hiPSC-CMs (voltage clamp); assay type: cell-based; parameters: unit not given here
T2 construct: host or cells: hiPSC-CMs (iCell Cardiomyocytes)
Description: The hiPSC-CMs from human fibroblast cell lines (iCell Cardiomyocytes; Cellular Dynamics International, Madison, WI, USA) were purchased and cultured for single-cell electrophysiological recordings. Frozen vials of hiPSC-CMs were thawed in a water bath maintained at 37°C and mixed with ice-cold plating medium (iCell Cardiomyocyte Plating Medium, glucose-free). The cells were transferred to four-well culture plates containing 0.1% gelatin-coated glass coverslips and then maintained in a culture incubator at 37°C in an atmosphere of 93% air and 7% CO2. After 2 days of culture, the plating medium was replaced with culture medium (iCell Cardiomyocyte Maintenance Medium, glucose-free), which was then changed every 2 days. The hiPSC-CMs were cultured for 4 weeks and used at 7 to 28 days post-thaw for electrophysiological analysis. […] The internal solution contained (in mM) 120 K-Asp, 20 KCl, 5 NaCl, 2 CaCl2, 10 HEPES, 5 EGTA, and 5 Mg-ATP (pH 7.25). We recorded typical APs in hiPSC-CMs in the current-clamp mode. The spontaneous beating activity or paced firing of single hiPSC-CMs were recorded, and only hiPSC-CMs that could beat stably were included in the analysis. Following stabilization of the AP waveforms, the average of six recorded APs for each test concentration was analyzed.
pCLAMP (Axon Instruments, Foster City, CA, USA), Origin 8 (OriginLab Corp, Northampton, MA, USA), and Excel (Microsoft, Redmond, WA, USA) were used for data acquisition and analysis. The concentration–response relationships for drug-induced blockage were calculated using SigmaPlot (Systat Software, San Jose, CA, USA). […] Data are presented as the means ± SEM, and n represents the number of experimental replicates. Statistical significance was determined using the Student’s t-test and one-way ANOVA with post hoc testing using Dunnett’s method; p < 0.05 was considered to indicate statistical significance.

rabbit Purkinje fibers = test: Action potential recording in rabbit Purkinje fiber; settings: for APA / APD50 / APD90 / RMP / Vmax: 1 Hz pacing
Description: This study was conducted in facilities approved by the AAALAC (Association for Assessment and Accreditation of Laboratory Animal Care) International. All procedures were approved by our Institutional Animal Care and Use Committee (IACUC). Female New Zealand white rabbits (1.8–2 kg) were anaesthetized with pentobarbital sodium (45 mg/kg intravenously). Their hearts were rapidly removed and placed in normal Tyrode’s solution: 143 NaCl; 5.4 KCl; 5.0 HEPES (4-(2-hydroxyethyl)-1-piperazineethanesulfonic acid); 0.33 H2PO4; 0.5 MgCl2; 16.6 Glucose; 1.8 CaCl2; pH 7.4 aerated with O2 gas. Purkinje fibers (PFs) were excised from the left ventricle and stored in a chamber superfused with normal Tyrode’s solution at 37.0 ± 0.5 °C and 5 mL/min. Action potentials (APs) were recorded using the conventional intracellular recording technique. The tissue preparation was driven by electrical pulses (duration = 2 ms, frequencies of 1 Hz). The signals of APs were amplified with Geneclamp 500B (Molecular Devices Corporation, Sunnyvale, CA, USA) and recorded by Notocord systems (Croissy-sur-Seine, France) for off-line analysis.

Ca2+-specific inward current (ICa), sequence (P22002 whole entry, other chains not shown, the tested form may be a part): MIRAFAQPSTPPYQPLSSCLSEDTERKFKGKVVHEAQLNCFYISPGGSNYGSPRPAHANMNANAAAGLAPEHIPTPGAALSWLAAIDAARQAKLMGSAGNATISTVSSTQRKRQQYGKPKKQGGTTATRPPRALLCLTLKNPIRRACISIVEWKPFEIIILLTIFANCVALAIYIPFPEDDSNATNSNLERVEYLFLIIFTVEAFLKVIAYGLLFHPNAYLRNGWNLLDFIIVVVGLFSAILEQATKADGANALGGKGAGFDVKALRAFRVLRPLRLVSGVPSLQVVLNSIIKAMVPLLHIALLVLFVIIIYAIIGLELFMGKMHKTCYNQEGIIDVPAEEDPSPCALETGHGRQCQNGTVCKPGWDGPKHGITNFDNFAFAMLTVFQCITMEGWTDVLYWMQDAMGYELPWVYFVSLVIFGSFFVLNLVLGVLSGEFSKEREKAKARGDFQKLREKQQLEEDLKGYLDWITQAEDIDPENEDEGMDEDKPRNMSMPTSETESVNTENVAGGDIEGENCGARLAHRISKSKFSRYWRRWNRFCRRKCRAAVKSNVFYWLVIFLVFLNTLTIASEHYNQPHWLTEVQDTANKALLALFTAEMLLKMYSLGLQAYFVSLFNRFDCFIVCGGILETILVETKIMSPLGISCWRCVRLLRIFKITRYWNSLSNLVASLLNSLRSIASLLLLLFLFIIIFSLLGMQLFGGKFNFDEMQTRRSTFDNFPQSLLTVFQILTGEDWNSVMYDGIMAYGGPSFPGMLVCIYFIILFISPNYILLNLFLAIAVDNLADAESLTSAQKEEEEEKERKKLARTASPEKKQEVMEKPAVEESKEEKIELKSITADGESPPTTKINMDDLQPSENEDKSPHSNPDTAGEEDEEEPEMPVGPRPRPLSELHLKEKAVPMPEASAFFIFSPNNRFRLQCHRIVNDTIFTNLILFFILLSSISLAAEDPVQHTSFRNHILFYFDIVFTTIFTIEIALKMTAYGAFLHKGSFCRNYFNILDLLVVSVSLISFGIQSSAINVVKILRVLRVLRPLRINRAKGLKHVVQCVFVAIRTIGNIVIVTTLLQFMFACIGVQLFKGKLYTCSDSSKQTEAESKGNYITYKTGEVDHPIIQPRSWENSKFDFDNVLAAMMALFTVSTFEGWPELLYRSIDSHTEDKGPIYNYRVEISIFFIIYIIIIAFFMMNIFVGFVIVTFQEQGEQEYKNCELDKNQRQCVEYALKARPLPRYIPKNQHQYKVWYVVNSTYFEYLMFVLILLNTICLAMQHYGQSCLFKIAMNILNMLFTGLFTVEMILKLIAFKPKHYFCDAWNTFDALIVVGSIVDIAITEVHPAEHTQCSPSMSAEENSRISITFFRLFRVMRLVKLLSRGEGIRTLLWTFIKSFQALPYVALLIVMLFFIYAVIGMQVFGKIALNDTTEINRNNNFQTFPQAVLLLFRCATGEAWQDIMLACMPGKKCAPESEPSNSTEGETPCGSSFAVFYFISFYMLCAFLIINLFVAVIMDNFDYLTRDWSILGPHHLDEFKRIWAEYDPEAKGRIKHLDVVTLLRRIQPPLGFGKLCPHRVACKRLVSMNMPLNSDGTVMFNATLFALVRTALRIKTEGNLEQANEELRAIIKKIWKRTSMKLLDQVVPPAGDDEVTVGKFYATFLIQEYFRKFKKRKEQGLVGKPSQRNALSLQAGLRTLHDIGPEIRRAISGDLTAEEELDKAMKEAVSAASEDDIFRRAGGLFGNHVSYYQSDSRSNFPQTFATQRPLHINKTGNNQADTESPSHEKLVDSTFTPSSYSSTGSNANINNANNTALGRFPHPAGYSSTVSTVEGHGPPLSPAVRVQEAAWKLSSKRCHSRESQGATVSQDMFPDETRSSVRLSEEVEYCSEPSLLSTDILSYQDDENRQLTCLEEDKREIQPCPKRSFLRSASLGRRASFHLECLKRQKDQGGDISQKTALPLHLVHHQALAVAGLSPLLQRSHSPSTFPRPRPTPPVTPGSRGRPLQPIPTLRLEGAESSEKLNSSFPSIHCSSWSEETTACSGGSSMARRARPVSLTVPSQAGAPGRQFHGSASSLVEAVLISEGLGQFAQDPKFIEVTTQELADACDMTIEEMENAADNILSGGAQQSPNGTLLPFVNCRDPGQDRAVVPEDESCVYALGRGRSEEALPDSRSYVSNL
Ca2+-specific inward current (ICa), sequence (P54290 25-1091 partner, other chains not shown): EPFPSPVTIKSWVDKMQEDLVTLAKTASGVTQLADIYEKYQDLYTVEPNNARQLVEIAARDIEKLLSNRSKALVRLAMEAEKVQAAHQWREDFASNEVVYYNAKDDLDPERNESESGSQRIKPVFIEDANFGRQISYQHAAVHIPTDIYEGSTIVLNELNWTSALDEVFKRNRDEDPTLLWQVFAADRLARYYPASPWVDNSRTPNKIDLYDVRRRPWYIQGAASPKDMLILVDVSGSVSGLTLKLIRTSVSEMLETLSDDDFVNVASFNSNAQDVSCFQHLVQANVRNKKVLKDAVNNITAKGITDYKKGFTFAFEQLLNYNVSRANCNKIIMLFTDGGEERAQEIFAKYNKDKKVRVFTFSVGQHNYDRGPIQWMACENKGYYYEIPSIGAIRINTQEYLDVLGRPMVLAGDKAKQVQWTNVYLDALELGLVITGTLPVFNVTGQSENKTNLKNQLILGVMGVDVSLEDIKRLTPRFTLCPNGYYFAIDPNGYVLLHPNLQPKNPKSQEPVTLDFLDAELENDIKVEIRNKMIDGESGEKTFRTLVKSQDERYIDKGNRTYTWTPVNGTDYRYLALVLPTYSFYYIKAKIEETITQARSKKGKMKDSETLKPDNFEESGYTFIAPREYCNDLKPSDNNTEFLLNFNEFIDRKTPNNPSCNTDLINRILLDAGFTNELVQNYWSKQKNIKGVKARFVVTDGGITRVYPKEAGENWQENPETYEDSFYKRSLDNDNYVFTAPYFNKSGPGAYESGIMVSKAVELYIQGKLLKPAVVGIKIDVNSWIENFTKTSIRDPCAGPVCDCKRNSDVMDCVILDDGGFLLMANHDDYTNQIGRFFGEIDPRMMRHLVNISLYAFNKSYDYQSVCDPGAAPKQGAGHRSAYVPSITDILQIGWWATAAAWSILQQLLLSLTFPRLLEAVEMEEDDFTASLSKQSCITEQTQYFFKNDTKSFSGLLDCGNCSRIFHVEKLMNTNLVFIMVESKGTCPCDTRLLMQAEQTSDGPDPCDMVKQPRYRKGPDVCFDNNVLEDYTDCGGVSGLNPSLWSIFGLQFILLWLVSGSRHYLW
T2 sequence (Q12809 whole entry): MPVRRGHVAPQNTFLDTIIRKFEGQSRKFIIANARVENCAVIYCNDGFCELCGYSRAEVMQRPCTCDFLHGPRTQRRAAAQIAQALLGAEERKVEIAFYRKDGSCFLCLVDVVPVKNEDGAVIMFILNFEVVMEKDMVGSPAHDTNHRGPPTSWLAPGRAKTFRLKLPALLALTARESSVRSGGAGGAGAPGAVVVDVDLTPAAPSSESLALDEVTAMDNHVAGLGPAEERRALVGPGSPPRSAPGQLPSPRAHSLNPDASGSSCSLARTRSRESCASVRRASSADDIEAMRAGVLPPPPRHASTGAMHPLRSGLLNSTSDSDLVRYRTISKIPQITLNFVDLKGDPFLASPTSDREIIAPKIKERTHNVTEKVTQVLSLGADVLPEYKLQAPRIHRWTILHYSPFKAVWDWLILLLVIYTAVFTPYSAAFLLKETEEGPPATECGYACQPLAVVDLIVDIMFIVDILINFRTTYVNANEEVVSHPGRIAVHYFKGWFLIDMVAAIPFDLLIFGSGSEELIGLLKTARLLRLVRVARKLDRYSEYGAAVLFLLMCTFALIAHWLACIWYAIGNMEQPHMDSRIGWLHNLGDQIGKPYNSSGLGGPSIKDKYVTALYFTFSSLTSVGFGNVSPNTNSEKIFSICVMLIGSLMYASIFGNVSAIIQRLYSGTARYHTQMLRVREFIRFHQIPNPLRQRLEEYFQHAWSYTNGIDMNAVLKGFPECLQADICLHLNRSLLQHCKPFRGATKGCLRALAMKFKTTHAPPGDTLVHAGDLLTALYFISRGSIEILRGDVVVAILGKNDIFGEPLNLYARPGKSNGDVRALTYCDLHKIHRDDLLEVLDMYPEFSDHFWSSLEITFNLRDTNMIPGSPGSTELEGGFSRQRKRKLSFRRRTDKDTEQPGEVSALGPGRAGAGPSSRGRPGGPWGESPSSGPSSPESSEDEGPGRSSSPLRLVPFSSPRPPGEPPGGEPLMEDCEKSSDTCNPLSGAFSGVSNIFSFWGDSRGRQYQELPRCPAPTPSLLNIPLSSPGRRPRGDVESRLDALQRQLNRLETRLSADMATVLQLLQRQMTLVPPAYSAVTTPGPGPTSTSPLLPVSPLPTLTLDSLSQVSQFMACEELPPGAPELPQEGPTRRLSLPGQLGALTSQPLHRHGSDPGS

## COc1cc2c(Nc3ccc(Br)cc3F)ncnc2cc1OCC1CCN(C)CC1 [Vandetanib]
KCNQ1/KCNE1 (IKs); 10 μM
  IKs current: 840.7 ± 180.3
KCNQ1/KCNE1 (IKs); 30 μM
  IKs current: 406.5 ± 113.7
KCNQ1/KCNE1 (IKs); 100 μM
  IKs current: 108.2 ± 8.3
KCNQ1/KCNE1 (IKs); HEK293 cells
  IC50: 28 ± 1.81 µM
[1]; 10 μM
  ICa current: -1639.5 ± 238.1
[1]; 30 μM
  ICa current: -990.7 ± 97.8
[1]; 100 μM
  ICa current: -219.7 ± 24.4
IhERG in hiPSC-CMs; 0.1 μM
  IhERG current: 196.0 ± 3.2
IhERG in hiPSC-CMs; 0.3 μM
  IhERG current: 164.9 ± 9.4
IhERG in hiPSC-CMs; 1 μM
  IhERG current: 92.8 ± 11.2
IhERG in hiPSC-CMs; 3 μM
  IhERG current: 20.4 ± 4.4
Rabbit Purkinje fibers; 0.3 μM
  APA: 118.0 ± 1.9 mV
  APD50: 218.9 ± 20.3 ms
  APD90: 300.1 ± 21.0 ms
  RMP: -82.2 ± 0.4 mV
  Vmax: 380.9 ± 82.9 V/s
Rabbit Purkinje fibers; 1 μM
  APD90 increase compared to vehicle control: 31%
  APA: 118.1 ± 2.1 mV
  APD90: 354.0 ± 25.2 ms
  RMP: -82.2 ± 1.2 mV
  Vmax: 379.9 ± 91.1 V/s
Rabbit Purkinje fibers; 3 μM
  APD50 increase compared to vehicle control: 38.9%
  APD90 increase compared to vehicle control: 55.6%
  APA: 118.1 ± 1.5 mV
  APD50: 289.6 ± 21.4 ms
  APD90: 417.1 ± 20.6 ms
  RMP: -82.3 ± 2.5 mV
  Vmax: 382.8 ± 64.6 V/s
Rabbit Purkinje fibers; concentrations up to 3 μM
  Effect on RMP, APA, and Vmax: did not significantly alter
